Measured values reported in patent publication US10774083B2, “Heterocyclic amide compound” (TAKEDA PHARMACEUTICAL COMPANY LIMITED, priority 2016, dated 2020).

Test system: human malignant melanoma cell line SKMEL-2
Assay: antitumor action on mice transplanted with human malignant melanoma cell line SKMEL-2
Assay type: in vivo, mouse
Details: once per day, 14 days
Protocol: An antitumor action of the compound of the present invention on mice transplanted with human malignant melanoma cell line SKMEL-2 and human fibrosarcoma cell line HT-1080 was evaluated by the following method.
Human malignant melanoma cell line SKMEL-2 was subcutaneously transplanted by injection to 7-week-old BALB/cA Jcl-nu/nu female mice (CLEA Japan, Inc.) at 1.0×10^7 cells (G1). At the time point when the tumor volume reached around 800 mm^3 after transplantation, the cells were subcultured and transplanted into 7-week-old BALB/cA Jcl-nu/nu female mouse (CLEA Japan, Inc.) by using trocar (G2). […] At 13 days from transplantation, the tumor diameter of the engrafted tumor was measured and the tumor volume was calculated by the following formula.
Individuals having a tumor volume of 100 to 300 mm^3 were selected for SKMEL-2, and individuals having a tumor volume of 200 to 400 mm^3 were selected for HT-1080, and 4 or 5 mice per group were used for the experiment. […] The tumor diameter was measured one day before the start of administration and one day after completion of administration and the tumor volume was calculated.
The tumor proliferation rate (T/C (%)) of the test compound administration group in comparison with the control administration group was calculated by the following formula. […]

Cc1cc(N2CC[C@@](C#N)(C3CC3)C2=O)cc(C(=O)NCc2cc(F)cc(-c3cnn(C)c3)c2)n1 [Example 159, 4-((3S)-3-cyano-3-cyclopropyl-2-oxopyrrolidin-1-yl)-N-(3-fluoro-5-(1-methyl-1H-pyrazol-4-yl)benzyl)-6-methylpyridine-2-carboxamide]
T/C (%) tumor proliferation rate (SKMEL-2, 5 mg/kg orally): 64%
T/C (%) tumor proliferation rate (SKMEL-2, 10 mg/kg orally): 7.7%
